Assay results from patent US20020115642A1, “Beta-lactam antibiotics” (priority 2000, published 2002).
≈ marks a conversion by molar mass, not a printed value. Like-named read-outs stand apart in the source and are kept apart here. Values belong to the compound of their own block, whether it stands above or below them.

What was measured:
[1] = tested on: K. pneumoniae; assay: Susceptibility testing (MIC, modified NCCLS method); assay type: cell-based, Klebsiella pneumoniae
Method: (§1) The NCCLS (National Committee for Clinical Laboratory Standards) method to determine MIC's of antimicrobial compounds was modified for high-throughput screening. All stocks of tested compounds were prepared in either water or in dimethylsulfoxide (DMSO), depending on the solubility. […] Briefly 20 2-fold serial dilutions of testing compounds from the highest concentration were made in a 384-well microtiter plate. Each well was inoculated with testing bacteria in broth to a final concentration of approximately 1-1.5×10^6 cells/ml. Bacterial growth was determined by the increase of optical density at 600 nm using a microplate reader (Tecan SpectraFluor Plus).

[2] = tested on: Staphylococcus aureus; assay: as above; assay type: cell-based
Method: as §1

[3] = tested on: E. aerogenes; assay: as above; assay type: cell-based, Enterobacter aerogenes
Method: as §1

[4] = tested on: E. faecalis; assay: as above; assay type: cell-based, Enterococcus faecalis
Method: as §1

[5] = tested on: P. aeruginosa; assay: as above; assay type: cell-based, Pseudomonas aeruginosa
Method: as §1

[6] = tested on: E. cloacae; assay: as above; assay type: cell-based, Enterobacter cloacae
Method: as §1

[7] = tested on: E. coli/TEM-1; assay: as above; assay type: cell-based, Escherichia coli
Method: as §1

[8] = tested on: E. coli N; assay: as above; assay type: cell-based, Escherichia coli; settings: E. coli (N)
Method: as §1

[9] = tested on: E. coli N; assay: Inhibition of bacterial growth (IC50, OD600); assay type: cell-based
Method: Compounds of the invention were tested for their ability to inhibit the growth of β-lactam sensitive and resistant bacteria by contacting samples of such cells with various dilutions of the compositions, incubating the cells at 37° C. in the presence of these compositions and then measuring the number of viable cells present in each sample.
Two compounds of the invention were tested, Compound (9) and Compound (1l). Incubation of bacterial cells was performed for two time periods, 10 hours and 20 hours. Four E. coli strains were used for the test. These strains were all derived from the strain NovaBlue (NovaGen Inc., Madison, Wis.). E. coli N is a normal, β-lactam sensitive strain. E coli R(Tem1) is a β-lactam resistant strain with a β-lactamase gene on a plasmid. E. coli C(Tem4O-15) is a β-lactam resistant strain with a β-lactam inhibitor resistant β-lactamase gene, and E. coli C(Tem3 1-27) is β-lactam resistant strain with an alternative β-lactam inhibitor resistant β-lactamase gene.
The various E. coli strains were each treated with dilutions of the compounds of the invention. […] The number of viable cells at each time point was determined by measuring the OD600 of each cell sample.
After measuring the number of viable cells present, the IC50 for each sample was determined. […] In addition, both compounds were effective at inhibiting the growth of both antibiotic sensitive and resistant bacterial cells.

Compound: O=C(COc1ccc(O)cc1)NC1C(=O)N2C(C(=O)O)=C(COc3cc(Cl)ccc3Oc3ccc(Cl)cc3Cl)CS[C@H]12 (stereo partly shown) [Compound 40, 3-(2-(2,4-dichlorophenoxy)-5-chlorophenoxy)methyl-7-[2-(4-hydroxyphenoxy)acetamido]-3-cephem-4-carboxylic acid]
MIC ([1]; Klebsiella pneumoniae, ATCC51503, K. pneumoniae ATCC 51503, read-out: MIC): 16 µg/mL (≈ 24.5 µM) | MIC ([1]; Klebsiella pneumoniae, ATCC700721, K. pneumoniae ATCC 700721, read-out: MIC): 2 µg/mL (≈ 3.07 µM) | MIC ([2]; Staphylococcus aureus, ATCC11632, S. aureus ATCC 11632, read-out: MIC): 16000 ng/mL (≈ 24.5 µM) | MIC ([2]; Staphylococcus aureus, ATCC33591, S. aureus ATCC 33591, read-out: MIC): 125 ng/mL (≈ 0.192 µM) | MIC ([2]; Staphylococcus aureus, ATCC33594, S. aureus ATCC 33594, read-out: MIC): 63 ng/mL (≈ 0.0966 µM) | MIC ([2]; Staphylococcus aureus, ATCC700260, S. aureus ATCC 700260, read-out: MIC): 4000 ng/mL (≈ 6.14 µM) | MIC ([2]; Staphylococcus aureus, ATCC700699, S. aureus ATCC 700699, read-out: MIC): 32000 ng/mL (≈ 49.1 µM) | MIC ([3]; Klebsiella aerogenes, ATCC35028, E. aerogenes ATCC 35028, read-out: MIC): 32 µg/mL (≈ 49.1 µM) | MIC ([4]; Enterococcus faecalis, ATCC49757, E. faecalis ATCC 49757, read-out: MIC): 16 µg/mL (≈ 24.5 µM) | MIC ([4]; Enterococcus faecalis, ATCC700802, E. faecalis ATCC 700802, read-out: MIC): 16 µg/mL (≈ 24.5 µM) | MIC ([5]; Pseudomonas aeruginosa, ATCC21726, P. aeruginosa ATCC 21726, read-out: MIC): > 32 µg/mL | MIC ([5]; Pseudomonas aeruginosa, ATCC29872, P. aeruginosa ATCC 29872, read-out: MIC): > 32 µg/mL | MIC ([6]; Enterobacter cloacae, ATCC23355, E. cloacae ATCC 23355, read-out: MIC): 16 µg/mL (≈ 24.5 µM) | MIC ([7]; Escherichia coli): 0.063 µg/mL (≈ 0.0966 µM) | MIC ([8]; Escherichia coli, read-out: MIC): 0.5 µg/mL (≈ 0.767 µM)

MIC ([1]; Klebsiella pneumoniae, K. pneumoniae (5), read-out: GM* MIC (geometric mean)): 27200 µg/mL (≈ 77800 µM) | MIC range ([3]; E. aerogenes (5)): 61 to 7813 µg/mL | MIC ([3]; Klebsiella aerogenes, E. aerogenes (5), read-out: GM* MIC (geometric mean)): 488 µg/mL (≈ 1400 µM) | IC50 ([9]; Escherichia coli, 10 h, read-out: IC50 10 hours, Cell N, 10 hours, 37° C.): 9.71 µM | IC50 ([9]; Escherichia coli, 20 h, read-out: IC50 20 hours, Cell N, 20 hours): 7.47 µM | IC50 ([9]; read-out: IC50 10 hours, Cell N, 10 hours, 37° C.): 7.88 µM | MIC range ([6]; E. cloacae (1)): 31 µg/mL (≈ 88.7 µM) | MIC ([6]; Enterobacter cloacae, E. cloacae (1), read-out: GM* MIC (geometric mean)): 31 µg/mL (≈ 88.7 µM)
Compound: CC1(C)S[C@@H]2[C@H](NC(=O)[C@H](N)c3ccccc3)C(=O)N2[C@H]1C(=O)O [Ampicillin, ampicillin, reference compound]

Compound: O=C(Cc1cccs1)NC1C(=O)N2C(C(=O)O)=C(CC=COc3cc(Cl)ccc3Oc3ccc(Cl)cc3Cl)CSC12 (stereo not shown) [Compound 24, 3-(1-(2-(2,4-Dichlorophenoxy)-5-chlorophenoxy)-3-propenyl)-7-(2-thienylacetamido)-3-cephem-4-carboxylic acid]
MIC ([1]; K. pneumoniae ATCC 51503): 2.07 µg/mL (≈ 3.17 µM) | MIC ([1]; K. pneumoniae ATCC 700721): 2.07 µg/mL (≈ 3.17 µM) | MIC ([2]; S. aureus ATCC 11632): 65 ng/mL (≈ 0.0997 µM) | MIC ([2]; S. aureus ATCC 33594): 65 ng/mL (≈ 0.0997 µM) | MIC ([2]; S. aureus ATCC 700260): 0.01 ng/mL (≈ 1.53e-05 µM) | MIC ([2]; S. aureus ATCC 700699): 32 ng/mL (≈ 0.0491 µM) | MIC ([3]; E. aerogenes ATCC 35028): 4.14 µg/mL (≈ 6.35 µM) | MIC ([4]; E. faecalis ATCC 49757): 4.14 µg/mL (≈ 6.35 µM) | MIC ([4]; E. faecalis ATCC 700802): 8.28 µg/mL (≈ 12.7 µM) | MIC ([5]; P. aeruginosa ATCC 21726): >16.6 µg/mL | MIC ([5]; P. aeruginosa ATCC 29872): >16.6 µg/mL | MIC ([6]; E. cloacae ATCC 23355): 2.07 µg/mL (≈ 3.17 µM) | MIC ([7]; E. coli/Tem-1): 0.016 µg/mL (≈ 0.0245 µM) | MIC [8]: 0.26 µg/mL (≈ 0.399 µM)
